molecular target: Cezanne 1 (Homo sapiens (Human), UniProt Q6GQQ9); assay: Cezanne 1 biochemical IC50 assay (fluorescence polarisation, TAMRA labelled peptide linked to ubiquitin); conditions: Cezanne 1 biochemical IC50 assay; 30 min pre-incubation, read after 2 hr at room temperature; read-out: IC50 range
Experimental: The Cezanne 1 construct was PCR amplified and cloned into a pFLAG-CMV-6c vector (Sigma-Aldrich) with an N-terminal FLAG tag. HEK293T cells were transfected with FLAG-Cezanne 1 using TransIT-LT1 transfection reagent (Mirus) according to the manufacturer's instructions. Cells were harvested 48 hours after transfection. […] The resin was washed two times with low salt buffer and one time with high salt buffer (20 mM Tris, pH 7.5, 500 mM NaCl, 0.5 mM EDTA, 5 mM beta-mercaptoethanol, protease inhibitors (complete mini, Roche) and phosphatase inhibitors (PhosSTOP mini, Roche). To elute the bound Cezanne 1, elution buffer (10 mM Tris, pH 7.5, 150 mM NaCl, 0.5 mM EDTA, 10% glycerol, 0.5% NP40, 5 mM beta-mercaptoethanol, 0.15 mg/ml 3× FLAG peptide (Sigma-Aldrich)) was added to the resin and incubated at 4° C. for 2.5 hours while rotating. The resin was centrifuged at 4000 rpm for 30 seconds, and the supernatant containing purified FLAG-Cezanne 1 was removed and stored at −80° C. […] Dilution plates were prepared at 21 times the final concentration (2100 μM for a final concentration of 100 μM) in 50% DMSO in a 96-well polypropylene V-bottom plate (Greiner #651201). […] Reactions were performed in duplicate in black 384 well plates (small volume, Greiner 784076) in a final reaction volume of 21 μl. Either 1 μl of 50% DMSO or diluted compound was added to the plate. Cezanne 1 was diluted in reaction buffer (40 mM Tris, pH 7.5, 0.005% Tween 20, 0.5 mg/ml BSA, 5 mM—beta-mercaptoethanol) to the equivalent of 0.005 μl/well and 10 μl of diluted Cezanne 1 was added to the compound. Enzyme and compound were incubated for 30 min at room temp. Reactions were initiated by the addition of 50 nM of TAMRA labelled peptide linked to ubiquitin via an iso-peptide bond as fluorescence polarisation substrate. Reactions were read immediately after addition of substrate and following a 2 hr incubation at room temperature. Readings were performed on a Pherastar Plus (BMG Labtech). λ Excitation 540 nm; λ Emission 590 nm.

Chain of Cezanne 1 (Q6GQQ9 whole entry): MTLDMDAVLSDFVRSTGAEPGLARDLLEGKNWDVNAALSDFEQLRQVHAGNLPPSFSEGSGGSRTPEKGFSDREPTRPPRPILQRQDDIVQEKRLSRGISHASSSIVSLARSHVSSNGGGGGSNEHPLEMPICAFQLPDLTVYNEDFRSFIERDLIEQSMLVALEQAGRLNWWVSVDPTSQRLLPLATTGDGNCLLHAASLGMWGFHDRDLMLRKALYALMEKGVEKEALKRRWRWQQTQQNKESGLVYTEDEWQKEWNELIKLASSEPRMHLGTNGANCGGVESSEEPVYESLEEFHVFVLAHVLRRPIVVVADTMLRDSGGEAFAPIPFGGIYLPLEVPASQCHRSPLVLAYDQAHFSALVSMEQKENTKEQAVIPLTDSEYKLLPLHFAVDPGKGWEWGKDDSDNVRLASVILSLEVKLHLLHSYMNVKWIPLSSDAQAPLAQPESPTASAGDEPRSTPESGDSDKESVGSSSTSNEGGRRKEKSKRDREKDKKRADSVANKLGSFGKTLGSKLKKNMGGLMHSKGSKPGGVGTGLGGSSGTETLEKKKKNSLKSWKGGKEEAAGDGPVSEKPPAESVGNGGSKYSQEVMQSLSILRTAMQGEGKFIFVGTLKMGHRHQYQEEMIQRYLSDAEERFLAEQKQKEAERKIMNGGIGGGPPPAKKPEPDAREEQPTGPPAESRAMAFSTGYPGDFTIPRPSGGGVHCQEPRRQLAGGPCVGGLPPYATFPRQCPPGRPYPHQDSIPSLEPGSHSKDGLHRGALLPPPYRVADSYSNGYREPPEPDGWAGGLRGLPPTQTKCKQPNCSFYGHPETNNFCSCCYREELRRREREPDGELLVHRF

`N#CN1CC[C@@]2(C1)Oc1ncc(-c3cccc(F)c3)cc1NC2=O` [Example 69, (S)-7-(3-Fluorophenyl)-2-oxo-1,2-dihydrospiro[pyrido[2,3-b][1,4]oxazine-3,3′-pyrrolidine]-1′-carbonitrile] and `N#Cc1cccc(-c2cnc3c(c2)NC(=O)[C@@]2(CCN(C#N)C2)O3)c1` [Example 71, (S)-7-(3-Cyanophenyl)-2-oxo-1,2-dihydrospiro[pyrido[2,3-b][1,4]oxazine-3,3′-pyrrolidine]-1′-carbonitrile] fall in the same range of IC50: 0.1 to 1 µM for the first, 0.1 to 1 µM for the second.

`N#Cc1ccc(-c2cnc3c(c2)NC(=O)[C@@]2(CCN(C#N)C2)O3)cc1` [Example 70, (S)-7-(4-Cyanophenyl)-2-oxo-1,2-dihydrospiro[pyrido[2,3-b][1,4]oxazine-3,3′-pyrrolidine]-1′-carbonitrile] and `N#CN1CC[C@@]2(C1)Oc1ncc(-c3ccc(F)cc3)cc1NC2=O` [Example 74, (S)-7-(4-Fluorophenyl)-2-oxo-1,2-dihydrospiro[pyrido[2,3-b][1,4]oxazine-3,3′-pyrrolidine]-1′-carbonitrile] fall in the same range of IC50: 0.1 to 1 µM for the first, 0.1 to 1 µM for the second.

`N#CN1CC[C@@]2(C1)Nc1ncc(-c3ccc(F)cc3)cc1NC2=O` [Example 72, (S)-7-(4-Fluorophenyl)-2-oxo-1,4-dihydro-2H-spiro[pyrido[2,3-b]pyrazine-3,3′-pyrrolidine]-1′-carbonitrile] and `N#CN1CC[C@@]2(C1)Nc1ncc(-c3cccc(F)c3)cc1NC2=O` [Example 73, (S)-7-(3-Fluorophenyl)-2-oxo-1,4-dihydro-2H-spiro[pyrido[2,3-b]pyrazine-3,3′-pyrrolidine]-1′-carbonitrile] fall in the same range of IC50: 0.1 to 1 µM for the first, 0.1 to 1 µM for the second.

`N#Cc1cccc(-c2cnc3c(c2)NC(=O)[C@@]2(CCN(C#N)C2)N3)c1` [Example 75, (S)-7-(3-Cyanophenyl)-2-oxo-1,4-dihydro-2H-spiro[pyrido[2,3-b]pyrazine-3,3′-pyrrolidine]-1′-carbonitrile] and `COc1ccc(-c2ccc3c(c2)CC2(CCN(C#N)C2)C(=O)N3)cn1` (stereo not shown) [Example 103, 6′-(6-Methoxypyridin-3-yl)-2′-oxo-1′,4′-dihydro-2′H-spiro[pyrrolidine-3,3′-quinoline]-1-carbonitrile] fall in the same range of IC50: 0.1 to 1 µM for the first, 0.1 to 1 µM for the second.

`C[C@H]1NC(=O)C2(CCN(C#N)C2)NC1=O` (stereo partly drawn) [Example 76, (8R)-8-Methyl-7,10-dioxo-2,6,9-triazaspiro[4.5]decane-2-carbonitrile] and `C[C@@H]1NC(=O)C2(CCN(C#N)C2)NC1=O` (stereo partly drawn) [Example 78, (8S)-8-Methyl-7,10-dioxo-2,6,9-triazaspiro[4.5]decane-2-carbonitrile] fall in the same range of IC50: 1 to 10 µM for the first, 1 to 10 µM for the second.

`N#CN1CCC2(C1)NC(=O)CNC2=O` (stereo not shown) [Example 77, 7,10-Dioxo-2,6,9-triazaspiro[4.5]decane-2-carbonitrile] and `N#CN1CCC2(C1)NC(=O)C(c1ccccc1)NC2=O` (stereo not shown) [Example 79, 7,10-Dioxo-8-phenyl-2,6,9-triazaspiro[4.5]decane-2-carbonitrile] fall in the same range of IC50: 1 to 10 µM for the first, 1 to 10 µM for the second.

Compared with `CCC1CC2(CCN(C#N)C2)C(=O)N1` (stereo not shown) [Example 80, 8-Ethyl-6-oxo-2,7-diazaspiro[4.4]nonane-2-carbonitrile], `N#CN1CCC2(CC(Cc3ccccc3)NC2=O)C1` (stereo not shown) [Example 81, 8-Benzyl-6-oxo-2,7-diazaspiro[4.4]nonane-2-carbonitrile] is lower in IC50: greater than 10 µM for the first, 1 to 10 µM for the second.

Compared with `N#CN1CCC2(C1)OCc1ccccc1NC2=O` (stereo not shown) [Example 85, 2-Oxo-1,5-dihydro-2H-spiro[benzo[e][1,4]oxazepine-3,3′-pyrrolidine]-1′-carbonitrile], `N#CN1CCC2(CNc3ncccc3NC2=O)C1` (stereo not shown) [Example 86, 2-Oxo-1,2,4,5-tetrahydrospiro[pyrido[2,3-b][1,4]diazepine-3,3′-pyrrolidine]-1′-carbonitrile] is lower in IC50: 1 to 10 µM for the first, 0.1 to 1 µM for the second.

`CC1(c2ccccc2)NC(=O)C2(CCN(C#N)C2)NC1=O` (stereo not shown) [Example 87, 8-Methyl-7,10-dioxo-8-phenyl-2,6,9-triazaspiro[4.5]decane-2-carbonitrile] and `Cn1nccc1-c1ccc2c(c1)CC1(CCN(C#N)C1)C(=O)N2` (stereo not shown) [Example 94, 6′-(1-Methyl-1H-pyrazol-5-yl)-2′-oxo-1′,4′-dihydro-2′H-spiro[pyrrolidine-3,3′-quinoline]-1-carbonitrile] fall in the same range of IC50: 0.1 to 1 µM for the first, 0.1 to 1 µM for the second.

First: N#CN1CCC2(Cc3ccc(-c4cccc(OC(F)(F)F)c4)cc3NC2=O)C1 (stereo not shown) [Example 88, 2′-Oxo-7′-(3-(trifluoromethoxy)phenyl)-1′,4′-dihydro-2′H-spiro[pyrrolidine-3,3′-quinoline]-1-carbonitrile]
Second: N#CN1CCC2(Cc3cc(-c4cccc(OC(F)(F)F)c4)ccc3NC2=O)C1 (stereo not shown) [Example 95, 2′-Oxo-6′-(3-(trifluoromethoxy)phenyl)-1′,4′-dihydro-2′H-spiro[pyrrolidine-3,3′-quinoline]-1-carbonitrile]
The IC50 of the first is higher: 1 to 10 µM for the first, 0.1 to 1 µM for the second.

First: CN(C)C(=O)c1ccc(-c2ccc3c(c2)NC(=O)C2(CCN(C#N)C2)C3)cc1 (stereo not shown) [Example 89, 4-(1-Cyano-2′-oxo-1′,4′-dihydro-2′H-spiro[pyrrolidine-3,3′-quinolin]-7′-yl)-N,N-dimethylbenzamide]
Second: CN(C)C(=O)c1ccc(-c2ccc3c(c2)CC2(CCN(C#N)C2)C(=O)N3)cc1 (stereo not shown) [Example 110, 4-(1-Cyano-2′-oxo-1′,4′-dihydro-2′H-spiro[pyrrolidine-3,3′-quinolin]-6′-yl)-N,N-dimethylbenzamide]
The IC50 of the first is higher: 1 to 10 µM for the first, 0.1 to 1 µM for the second. The second is the more potent here.

`N#CN1CCC2(Cc3cc(-c4ccc(Oc5ccccc5)cc4)ccc3NC2=O)C1` (stereo not shown) [Example 96, 2′-Oxo-6′-(4-phenoxyphenyl)-1′,4′-dihydro-2′H-spiro[pyrrolidine-3,3′-quinoline]-1-carbonitrile] and `N#CN1CCC2(Cc3cc(-c4cccc(OCc5ccccc5Cl)c4)ccc3NC2=O)C1` (stereo not shown) [Example 102, 6′-(3-((2-Chlorobenzyl)oxy)phenyl)-2′-oxo-1′,4′-dihydro-2′H-spiro[pyrrolidine-3,3′-quinoline]-1-carbonitrile] fall in the same range of IC50: 1 to 10 µM for the first, 1 to 10 µM for the second.

`Cn1cc(-c2ccc3c(c2)CC2(CCN(C#N)C2)C(=O)N3)cn1` (stereo not shown) [Example 97, 6′-(1-Methyl-1H-pyrazol-4-yl)-2′-oxo-1′,4′-dihydro-2′H-spiro[pyrrolidine-3,3′-quinoline]-1-carbonitrile] and `N#CN1CCC2(Cc3cc(-c4cncnc4)ccc3NC2=O)C1` (stereo not shown) [Example 111, 2′-Oxo-6′-(pyrimidin-5-yl)-1′,4′-dihydro-2′H-spiro[pyrrolidine-3,3′-quinoline]-1-carbonitrile] fall in the same range of IC50: 0.1 to 1 µM for the first, 0.1 to 1 µM for the second.

`CNC(=O)c1ccc(-c2ccc3c(c2)CC2(CCN(C#N)C2)C(=O)N3)cn1` (stereo not shown) [Example 98, 5-(1-Cyano-2′-oxo-1′,4′-dihydro-2′H-spiro[pyrrolidine-3,3′-quinolin]-6′-yl)-N-methylpicolinamide] and `CNC(=O)c1ccc(-c2ccc3c(c2)CC2(CCN(C#N)C2)C(=O)N3)cc1` (stereo not shown) [Example 100, 4-(1-Cyano-2′-oxo-1′,4′-dihydro-2′H-spiro[pyrrolidine-3,3′-quinolin]-6′-yl)-N-methylbenzamide] fall in the same range of IC50: 0.1 to 1 µM for the first, 0.1 to 1 µM for the second.

`COc1ccc(C(C)C)cc1-c1ccc2c(c1)CC1(CCN(C#N)C1)C(=O)N2` (stereo not shown) [Example 101, 6′-(5-Isopropyl-2-methoxyphenyl)-2′-oxo-1′,4′-dihydro-2′H-spiro[pyrrolidine-3,3′-quinoline]-1-carbonitrile] and `CC(C)Oc1ccc(F)cc1-c1ccc2c(c1)CC1(CCN(C#N)C1)C(=O)N2` (stereo not shown) [Example 104, 6′-(5-Fluoro-2-isopropoxyphenyl)-2′-oxo-1′,4′-dihydro-2′H-spiro[pyrrolidine-3,3′-quinoline]-1-carbonitrile] fall in the same range of IC50: 0.1 to 1 µM for the first, 0.1 to 1 µM for the second.

Compared with `CN1CCN(C(=O)c2ccc(-c3ccc4c(c3)CC3(CCN(C#N)C3)C(=O)N4)cc2)CC1` (stereo not shown) [Example 106, 6′-(4-(4-Methylpiperazine-1-carbonyl)phenyl)-2′-oxo-1′,4′-dihydro-2′H-spiro[pyrrolidine-3,3′-quinoline]-1-carbonitrile], `Cn1ncc2cc(-c3ccc4c(c3)CC3(CCN(C#N)C3)C(=O)N4)ccc21` (stereo not shown) [Example 107, 6′-(1-Methyl-1H-indazol-5-yl)-2′-oxo-1′,4′-dihydro-2′H-spiro[pyrrolidine-3,3′-quinoline]-1-carbonitrile] is lower in IC50: 1 to 10 µM for the first, 0.1 to 1 µM for the second. The second is the more potent here.

`Cc1ccc2[nH]ncc2c1-c1ccc2c(c1)CC1(CCN(C#N)C1)C(=O)N2` (stereo not shown) [Example 108, 6′-(5-Methyl-1H-indazol-4-yl)-2′-oxo-1′,4′-dihydro-2′H-spiro[pyrrolidine-3,3′-quinoline]-1-carbonitrile] and `N#CN1CCC2(Cc3cc(-c4cccc(NS(=O)(=O)C5CC5)c4)ccc3NC2=O)C1` (stereo not shown) [Example 109, N-(3-(1-Cyano-2′-oxo-1′,4′-dihydro-2′H-spiro[pyrrolidine-3,3′-quinolin]-6′-yl)phenyl)cyclopropanesulfonamide] fall in the same range of IC50: 0.1 to 1 µM for the first, 0.1 to 1 µM for the second.

From patent publication US10654853B2, “Spiro-condensed pyrrolidine derivatives as deubiquitylating enzymes (DUB) inhibitors” (MISSION THERAPEUTICS LIMITED, priority 2016, dated 2020)
